Data set [1] deals with T1, CYP2B6 (Homo sapiens, UniProt P20813).
T1 construct: measuring the activity of CYP2B6 in human liver microsomes; from tissue; host or cells: human liver microsomes
T1 sequence (P20813 1-491): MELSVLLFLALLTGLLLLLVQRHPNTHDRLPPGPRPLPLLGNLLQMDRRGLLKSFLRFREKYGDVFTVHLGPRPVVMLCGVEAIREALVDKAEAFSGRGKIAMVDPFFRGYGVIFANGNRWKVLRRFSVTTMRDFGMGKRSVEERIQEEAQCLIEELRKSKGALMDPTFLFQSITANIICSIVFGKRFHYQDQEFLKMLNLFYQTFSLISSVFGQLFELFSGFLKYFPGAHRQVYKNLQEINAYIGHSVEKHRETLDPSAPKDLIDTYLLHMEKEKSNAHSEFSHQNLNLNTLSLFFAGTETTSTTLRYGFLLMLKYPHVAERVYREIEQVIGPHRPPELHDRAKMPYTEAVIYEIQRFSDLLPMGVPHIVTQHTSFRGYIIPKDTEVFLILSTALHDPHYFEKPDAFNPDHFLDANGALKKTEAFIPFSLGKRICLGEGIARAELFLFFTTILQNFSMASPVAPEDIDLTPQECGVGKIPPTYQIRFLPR
As to the kind of experiment: Inhibition of CYP2B6 activity in human liver microsomes (direct and time-dependent). Format: in vitro ADME. The procedure:
The inhibitory potency of dasotraline was determined in vitro by measuring the activity of CYP2B6 in human liver microsomes in the presence and absence of dasotraline. […] Furthermore, dasotraline was determined to be a time-dependent inhibitor of CYP2B6 with an apparent inactivation constant of 0.12 μM and a maximal inactivation rate constant of 0.15 min-1. Based on the Food and Drug Administration Draft Guidance: Drug Interaction Studies (February 2012) and the prediction using physiologically-based PK modeling and simulation there is a potential for dasotraline to inhibit the metabolism pathway of CYP2B6 substrates through time-dependent inhibition. Therefore, the effect of dasotraline on the PK of a CYP2B6 substrate (ie, efavirenz) was studied clinically.

A short description of data set [2]: clinical. To be noted: human, in vivo. The procedure: Eight clinical studies—including single dose pharmacokinetic (PK), multiple dose PK, efficacy, safety, and tolerability, human abuse liability, absorption, metabolism, and excretion, and safety, efficacy, and tolerability in adults with attention-deficit hyperactivity disorder—were completed with dasotraline. In those studies, single doses ranging from 0.2 mg to 36 mg and multiple doses from 0.5 mg/day to 8 mg/day for 21 to 56 days were evaluated. Dasotraline was slowly absorbed into the systemic circulation, reaching time of maximum observed plasma concentration (tmax) approximately 10 to 12 hours after single administration of doses ranging from 0.2 to 36 mg. The change in maximum observed plasma concentration (Cmax) with dose was nearly dose proportional for the same doses. […] Dasotraline is extensively metabolized by oxidation and subsequent phase II metabolism. CYP2B6 oxidizes dasotraline to “dasotraline oxime”: […]

Data set [3] can be described thus: clinical. Conditions: human, in vivo. The procedure:
A randomized, 2-way crossover study to evaluate the effect of dasotraline on the pharmacokinetics (PK) of efavirenz, a sensitive cytochrome P450 2B6 (CYP2B6) substrate, and to assess the safety and tolerability of a single dose of dasotraline given concurrently with efavirenz was conducted.
Methodology: The study enrolled 29 healthy, non-smoking male and female subjects. All subjects were randomized to one of two treatment sequences: (A) Single doses of placebo and 400 mg efavirenz followed 28 days later by single doses of 24 mg dasotraline and 400 mg efavirenz; or (B) Single doses of 24 mg dasotraline and 400 mg efavirenz followed 28 days later by single doses of placebo and 400 mg efavirenz. Dasotraline and placebo were administered 6 hours prior to the planned dosing time of efavirenz. A screening period of approximately 4 weeks was followed by 2 treatment periods, each of which included approximately 78 hours in-clinic confinement followed by 3 outpatient follow-up visits. Dose administration occurred on Day 1 and Day 29. During the first treatment period, subjects were admitted to the clinic on Day −1, the day before first study drug administration (Day 1), and remained in clinic until discharge on Day 3. Subjects returned to the clinic for 3 subsequent visits (Days 5, 7, and 14) for PK sample collection. Following a washout period (consisting of 28 non-dosing days), subjects returned and were readmitted to the clinic for the second treatment period on Day 28, the day before the second study drug administration (Day 29), and remained in clinic until discharge on Day 31. Subjects returned to the clinic for 3 subsequent visits (Days 33, 35, and 42) for PK sample collection. Day 42 was the End of Study visit.
Evaluation: Blood for serial PK sampling was obtained from all subjects prior to efavirenz administration (pre-dose) and at specified time points after efavirenz administration on Days 1 and 29 for each treatment sequence. The recorded times for dasotraline PK plasma sample collections were relative to efavirenz dosing time. The primary parameters for efavirenz analysis were maximum observed plasma concentration (Cmax), time of maximum observed plasma concentration (tmax), area under the concentration-time curve (AUC) from time 0 to time t (AUC0-t), AUC from time 0 to the time of last measurable concentration (AUC0-last), AUC from time 0 extrapolated to infinity (AUC0-inf), terminal elimination rate constant (λZ), apparent terminal elimination half-life (t1/2), apparent total clearance (CL/F), and apparent volume of distribution during the terminal elimination phase (Vz/F). The primary parameters for dasotraline analysis were Cmax, AUC0-last, AUC0-t, and AUC0-inf.
Statistical Methods: All analyses involving PK data (e.g., plasma concentrations, derived PK parameters, assessment of drug-drug interaction) were performed on the PK population. For plasma concentrations of dasotraline and efavirenz, descriptive statistics (e.g., number, arithmetic mean, arithmetic standard deviation, minimum, median, maximum, 25th percentile, 75th percentile, geometric mean, and geometric coefficient of variation) were listed and summarized by time point by treatment for the PK population. Mean plasma concentration-time profiles were plotted by treatment on linear and semi-logarithmic scales. Individual subject linear and semi-logarithmic concentration-time plots, with respective treatments presented together, were included in the appendices.
To evaluate the effect of dasotraline on the PK of efavirenz, a mixed effect analysis of variance (ANOVA) was applied for the primary endpoint on natural log-transformed Cmax, AUC0-last, AUC0-t, and AUC0-inf of efavirenz. The model included treatment, sequence, and period as fixed effects and subject nested within sequence as a random effect. Only subjects who completed both treatment periods were included in the overall ANOVA to allow for an intra-subject comparison to be conducted. […]
The source holds these as a separate data set.

The values that follow come from US20210386689A1, “METHODS OF TREATING CENTRAL NERVOUS SYSTEM DISORDERS” (Sunovion Pharmaceuticals Inc., priority 2018, published 2021).

The Tmax is the time from dosing to the highest level. For orientation: half-life means how long it takes for the measured level to halve. A low value points to fast loss. Usually Vd/F stands for the apparent distribution volume after extravascular dosing. One may read the Cmax as the highest concentration seen after dosing. In general, AUC(0-t) refers to the area under the concentration-time curve up to a stated or last time point. Low values mean less exposure, high ones more exposure. For orientation: AUC(0-inf) means total exposure, with the tail of the curve extrapolated. Lower therefore signals less exposure.

pKi: −log10 of the molar value.

Consider `N[C@@H]1CC[C@@H](c2ccc(Cl)c(Cl)c2)c2ccccc21` [Dasotraline, (1R,4S)-4-(3,4-dichlorophenyl)-1,2,3,4-tetrahydronaphthalen-1-amine], for which the pKi in data set [1] (direct competitive inhibition, read-out: inhibition constant) is 6.66. Moreover, in data set [1] (time-dependent inhibition), the apparent inactivation constant came out at 0.12 µM and the “maximal inactivation rate constant” value came to 0.15 min⁻¹. In data set [2], the time to peak (Tmax) was in the range of 10 to 12 h and the half-life fell in the range of 47.1 to 77 h.
In data set [3] (both sexes), `O=C1Nc2ccc(Cl)cc2[C@@](C#CC2CC2)(C(F)(F)F)O1` [Efavirenz] registered a Vd/F of 525 L. In data set [3] (both sexes, 400 mg), this compound showed a Cmax of 1560 ng/mL and a Vd/F of 759 L. Further, the AUC(0-t) in data set [3] (both sexes, 400 mg, AUC0-24) was found to be 18200 ng·h/mL. Also, in data set [3] (both sexes, 400 mg, AUC0-inf), the AUC(0-inf) was 92000 ng·h/mL. The exposure AUC(0-t) in data set [3] (both sexes, 400 mg, AUC0-last) came out at 80400 ng·h/mL. This compound gave a half-life in data set [3] (both sexes, 400 mg, t1/2) of 143 h. The Tmax in data set [3] (both sexes, 400 mg, tmax, median) was 3.05 h. For the same compound, in data set [3] (both sexes, Mean AUC from time 0 to 24 hours post-dose (AUC0-24)), the exposure AUC(0-t) is 19000 ng·h/mL. Moreover, in data set [3] (both sexes, Mean terminal half-life), the half-life was 143 h. The Tmax in data set [3] (both sexes, Median tmax) stood at 4 h. Moreover, in data set [3] (both sexes, mean AUC0-inf), the total exposure AUC(0-inf) was 87900 ng·h/mL. In addition, the exposure AUC(0-t) in data set [3] (both sexes, mean AUC0-last) is 112000 ng·h/mL. The half-life in data set [3] (both sexes, t1/2) is 161 h. Besides, the Tmax in data set [3] (both sexes, tmax, median) was 4 h. In data set [3] (both), the “Mean AUC from time 0 to 24 hours post-dose (AUC0-24)” value was 17,700 h*ng/mL, the Mean terminal half-life is 161 h, the Median tmax entry is on record as “approximately 3 hours” and the “geometric LS mean ratio for AUC0-24” value is listed as 107.5%. Moreover, in data set [3] (both), the “geometric LS mean ratio for AUC0-inf” value was found to be 153.5%, the “geometric LS mean ratio for AUC0-last” value stood at 143.1%, the “geometric LS mean ratio for Cmax” value is given as 98.5% and the “mean AUC0-inf” value was 135,000 h*ng/mL. In data set [3] (both), the “mean AUC0-last” value was 78,200 h*ng/mL.
